# Assay results reported in US20110277050A1, “SYSTEM AND METHODS TO CONTROL TRANSGENE EXPRESSION” (The Board of Trustees of the Leland Stanford Junior …, priority 2010, published 2011).
# B1: GAL4: budding yeast transcription factor of the GAL4/UAS binary expression system (protein, UniProt P04386 1-881, looked up)
# Regulatory protein GAL4: MKLLSSIEQACDICRLKKLKCSKEKPKCAKCLKNNWECRYSPKTKRSPLTRAHLTEVESRLERLEQLFLLIFPREDLDMILKMDSLQDIKALLTGLFVQDNVNKDAVTDRLASVETDMPLTLRQHRISATSSSEESSNKGQRQLTVSIDSAAHHDNSTIPLDFMPRDALHGFDWSEEDDMSDGLPFLKTDPNNNGFFGDGSLLCILRSIGFKPENYTNSNVNRLPTMITDRYTLASRSTTSRLLQSYLNNFHPYCPIVHSPTLMMLYNNQIEIASKDQWQILFNCILAIGAWCIEGESTDIDVFYYQNAKSHLTSKVFESGSIILVTALHLLSRYTQWRQKTNTSYNFHSFSIRMAISLGLNRDLPSSFSDSSILEQRRRIWWSVYSWEIQLSLLYGRSIQLSQNTISFPSSVDDVQRTTTGPTIYHGIIETARLLQVFTKIYELDKTVTAEKSPICAKKCLMICNEIEEVSRQAPKFLQMDISTTALTNLLKEHPWLSFTRFELKWKQLSLIIYVLRDFFTNFTQKKSQLEQDQNDHQSYEVKRCSIMLSDAAQRTVMSVSSYMDNHNVTPYFAWNCSYYLFNAVLVPIKTLLSNSKSNAENNETAQLLQQINTVLMLLKKLATFKIQTCEKYIQVLEEVCAPFLLSQCAIPLPHISYNNSNGSAIKNIVGSATIAQYPTLPEENVNNISVKYVSPGSVGPSPVPLKSGASFSDLVKLLSNRPPSRNSPVTIPRSTPSHRSVTPFLGQQQQLQSLVPLTPSALFGGANFNQSGNIADSSLSFTFTNSSNGPNLITTQTNSQALSQPIASSNVHDNFMNNEITASKIDDGNNSKPLSPGWTDQTAYNAFGITTGMFNTTTMDDVYNYLFDDEDTPPNPKKE
# B2: QF: transcriptional activator from the Neurospora crassa qa gene cluster, binds 16-base pair sequence (QUAS) (protein, UniProt P11638 1-816, looked up)
# Transcription factor qa-1f: MPPKRKTLNAAAEANAHADGHADGNADGHVANTAASSNNARFADLTNIDTPGLGPTTTTLLVEPARSKRQRVSRACDQCRAAREKCDGIQPACFPCVSQGRSCTYQASPKKRGVQTGYIRTLELALAWMFENVARSEDALHNLLVRDAGQGSALLVGKDSPAAERLHARWATSRVNKSITRLLSGQAAQDPSEDGQSPSEDINVQDAGAKTSDFPHAPHLTFSAPKSSTAETRTLPGPVRPPISANTLENNLQPDGTGIGKLPPNHWRLLDIYFSYTHSWLPILEKKDMYQALYQYSEQGSLLPSANVESGVHAELWSALALASFQAAATAASSATGPASAAHGHDNAINPSPADISDTARKLIPLESGPFQVQHCRALLLLCLVSLGRDDWESAWLLVGFAVRVLLVVRTQLPPDDDRPRPRMRALLVACFIVDTIVSMRHNVPAHLKPDDIADLPLPEDGQDQWEPWTPCEGLGGEHTMLQMLRNPAYPLSTFNHLYGVTKLVALELLPRIRTSSQNAPLEFRSRLQQVIGHNSPFSVFVLSQDTASAFVPTAYLTRTVYLWAAAFSEPLNEHYSHLLIETLDQYQKRFGTYAIPPLIPSLLDSLLALKKQSHSSERHRRHLEELFPAYSSIWPRGGRHSNTGLQPIRQLELPPTATATASIMPHVMEQPLSTSINPVNDRFNGIPNPTPYNSDAALDAITQTNDYGSVNTHGILSTYPPPATHLNEASVALAPGGAPPRPPPPYVDSTTNHPPYHSNLVPMANFGYSTVDYDAMVDDLASIEYTDAVDVDPQFMTNLGFVPGCNFSDISTYEQ
# Experiments:
# [1] = system: QUAS-luc2 reporter (QF activation, QS repression) in Drosophila S2 cells; test: Dual luciferase reporter assay in transiently transfected Drosophila S2 cells, QUAS-luc2 reporter (QF/QS); assay type: cell-based
# Procedure: (§1) S2 Cell Transfection: S2 cells (gift of M. Simon, Stanford University) were maintained in Shields and Sang M3 insect medium (Sigma, Catalog #S8398), prepared according to the manufacturer's instructions and supplemented with 10% heat inactivated fetal bovine serum (FBS) and antibiotics (from 100× penicillin/streptomycin stock, Invitrogen, Catalog #15140). FBS was heat inactivated at 56° C. for 30 minutes. The cells were grown in an air incubator at 25° C. For transfection, 0.4 ml of complete M3 medium containing 5*10^5 Drosophila S2 cells were plated into individual wells of 24-well plates several hours before the transfection. The DNA for transfection was mini-prepped (QIAprep Miniprep kit, Qiagen, Catalog #27106), DNA concentrations were determined using the Nanoprop 1000 spectrophotometer (Thermo Scientific), diluted in 10 mM TRIS-HCl pH 7.5, 0.1 mM EDTA to 25 ng/μl, and filtered through a 13-mm 0.2 μm filter (Nalgene, Catalog #180-1320). For individual transfections, we used 0.2 μg of total DNA (total of 8 μl from 25 ng/μl stocks) including one or more of the following: 25 ng of reporter, 12.5 ng of a transcription factor plasmid and the amount or repressor plasmid that was adjusted according to the molarity of the corresponding transcription factor plasmid to get either equimolar, 3-fold or 5-fold higher molar concentration, as indicated. Each sample also contained 2.5 ng of pPAC5C-hRluc, which was used for normalization of the firefly luciferase signal for each sample (see below) and pBluescript to supplement the total DNA amount to 0.2 μg. The cells were transfected using Effectene (Qiagen, Catalog #301425) according to the manufacturer's protocol (for each sample we used: 59 μl EC buffer; 1.6 μl enhancer solution; 4 μl Effectene and 350 μl M3 medium). 12 h after the addition of transfection mixes to cells, quinic acid was added where indicated from 50× stocks. The starting quinic acid stock solution (250 mg/ml) was prepared from D-(−)-quinic acid (Sigma-Aldrich, 98%, Catalog #138622) in sterile Milli-Q water and neutralized with NaOH to pH˜7. All other 50× stocks were made from this stock by dilution in water. Cells were lysed 24 h after the addition of quinic acid (36 h since the start of transfection), by spinning the 24-well plates for 5′ in a table top centrifuge at ˜1000 g, removing the supernatant by aspiration and incubation with of 200 μl passive lysis buffer (from the Dual Luciferase Reporter Assay System by Promega, Catalog #E1910) with shaking at room temperature for ˜30 minutes. The lysates were transferred into 1.5 ml tubes and frozen at −80° C. The lysates were analyzed using the Dual Luciferase Reporter Assay System, according to the manufacturer's instructions, and the single tube Turner Biosystems luminometer, model 20/20n. The luminescence light signal for both firefly and Renilla luciferases was collected for 10 s. All samples that were transfected with reporters had at least 100-fold higher signal than the background (lysates from pBluescript-only transfected cells). For each sample “X”, the relative luciferase activity (RLA) was calculated according to the following formula: […] where n=number of QUAS-only samples; F=Firefly luciferase luminescence signal; R=Renilla luciferase luminescence signal. Each condition was executed at least in triplicate, the average and SEM were determined for each condition, and statistical significance was evaluated using Student's t-test. […]
# [2] = system: UAS-luc2 reporter (GAL4 activation, GAL80 repression) in Drosophila S2 cells; test: Dual luciferase reporter assay in transiently transfected Drosophila S2 cells, UAS-luc2 reporter (GAL4/GAL80); assay type: cell-based
# Procedure: as §1
# [3] = system: QUAS-luc2 reporter (QF activation, QS repression) in human HeLa cells; test: Dual luciferase reporter assay in transiently transfected human HeLa cells, QUAS-luc2 reporter (QF/QS); assay type: cell-based
# Procedure: (§2) HeLa Cell Transfection: HeLa cells (gift of K. Wehner, Stanford University) were maintained in Dulbecco's Modified Eagle Medium (DMEM, Invitrogen, Catalog #10566), supplemented with 10% FBS and antibiotics (from 100× penicillin/streptomycin stock, Invitrogen, Catalog #15140) in a 37° C. air incubator with 5% CO2. At least 5 hours before transfection, cells were detached and dissociated from the plate using Triple-express (Invitrogen, Catalog #12605) and plated into 24-well plates at 7*10^4 cells in 0.5 ml medium with FBS, but without antibiotics. Cells were transiently transfected using Lipofectamine 2000 (Invitrogen, Catalog #11668-019), according to the manufacturer's instructions. Plasmid DNA for transfection was prepared as described in the S2 cell transfection protocol above. For each sample we used 0.25 μg DNA (total of 10 μl from 25 ng/μl stocks) including one or more of the following: 50 ng of reporter, 25 ng of a transcription factor plasmid and the amount or repressor plasmid that was adjusted according to the molarity of the corresponding transcription factor plasmid to get either equimolar, 3-fold or 5-fold higher molar concentration, as indicated.
# Each sample also contained 5 ng of pGL4.75 (hRluc/CMV from Promega), which was used for normalization of the firefly luciferase signal for each sample (see below), and pBluescript to supplement the total DNA amount to 0.25 μg. The DNA was mixed in 50 μl of Opti-MEM (Invitrogen, Catalog #51985) and combined with another 50 μl of Opti-MEM containing 1 μl of Lipofectamine. The medium containing the transfection mix was replaced with DMEM containing FBS and antibiotics 22 h after transfection. Where needed, the medium contained quinic acid supplemented from 50× stocks that were made as described in the S2 cell transfection protocol above. 24 h after the medium was changed, the cells were lysed in 24-well plates and processed as described above in the S2 cell transfection protocol. All samples that were transfected with reporters had at least 100-fold higher signal than the background (lysates from pBluescript-only transfected cells). […] Plasmids used for transfection in HeLa cells were: pUAS-luc2, pQUAS-luc2, pCMV-QF, pCMV-QS, pCMV-GAL4, pCMV-GAL80, pGL4.75 (Promega), pBluescript. Higher QS:QF or GAL80:GAL4 molar ratios are required for effective suppression in HeLa cells compared with Drosophila S2 cells. This phenomenon could be due to codon choice and/or differential activity or stability of activators and repressors at different temperatures—25° C. for S2 and 37° C. for HeLa.
# [4] = system: QS inhibition of ET40-QF driven QUAS-mtdT-HA expression; test: Quinic acid feeding of flies: derepression of QS (fluorescence imaging of adult flies); assay type: in vivo, Drosophila
# Procedure: (§3) Quinic acid feeding of flies: Quinic acid containing medium was made as follows: a few holes were made in standard fly medium with wooden sticks, and 0.3 ml of freshly made D-(−)-quinic acid (Sigma-Aldrich, 98%, Catalog #138622) solution dissolved in water was added per 10 ml of medium. Vials were allowed to air-dry overnight. […] For assaying the effect of quinic acid on developing animals, approximately 10 males and 15 females per vial of the genotype ET40-QF, QUAS-mtdT-3xHA (II); 82B^FRT tubP-QS (III) were allowed to lay eggs for 6 hours on quinic acid containing medium. Animals fed upon and developed in the quinic acid containing food. Adult flies were imaged within 3 days of eclosion. For assaying the effect of quinic acid feeding on adult flies, approximately 30 adult flies per vial of genotype ET40-QF, QUAS-mtdT-3xHA (II); 82B^FRT tubP-QS (III) were allowed to feed on quinic acid medium for the listed times in FIG. 3D. For feedings over multiple days, flies were transferred to fresh quinic acid containing food every two days.
# Imaging of adult flies: Adult flies were imaged on a Qlmaging Retiga 2000R Cooled Monochrome Digital camera using a Discovery V8 Pentafluor System (Zeiss) with a DS RED filter cube.
# Flies = Flies kept on food containing high doses of quinic acid; assay type: in vivo, Drosophila; conditions: 9 generations on food containing high doses of quinic acid
# Procedure: as §3
# [5] = Stability of quinic acid in fly food, judged by derepression activity; assay type: physicochemical; conditions: food stored for at least a week at 18° C.
# Procedure: as §3
# [6] = system: UAS-luc2 reporter (GAL4 activation) in human HeLa cells; test: Dual luciferase reporter assay in transiently transfected human HeLa cells, UAS-luc2 reporter (GAL4); assay type: cell-based
# Procedure: as §2
# Each sample also contained 5 ng of pGL4.75 (hRluc/CMV from Promega), which was used for normalization of the firefly luciferase signal for each sample (see below), and pBluescript to supplement the total DNA amount to 0.25 μg. […]
# [7] = adult flies transferred to quinic acid-containing food
molecule,measurement,setting,value
"O=C(O)[C@]1(O)C[C@@H](O)[C@@H](O)[C@H](O)C1 [quinic acid, D-(−)-quinic acid]",suppression of QS to restore QF-based transcription,[1],significantly suppressed QS
same,effect on QF activation of QUAS,[1]; high concentration (5 mg/ml),no effect
same,"re-activation of QUAS compared to the control sample with QUAS, QF and 5xQS","[1]; highest QA concentration tested (QA3=5 mg/ml), 24 h",~23 fold
same,derepression of GAL4 (effect on GAL80 repression of GAL4),[2]; high concentration (5 mg/ml),~1.5 fold
same,effect on Gal4 activation of UAS,[2]; high concentration (5 mg/ml),no effect
same,effect on QF-dependent transcription of QUAS,[3],no effect
same,suppression of QS in mammalian cells,[3]; also observed in COS cells,does not suppress QS
same,further suppression of QUAS activation in the presence of QF and 5xQS,"[3]; two higher QA concentrations tested (250 μg/ml, 5 mg/ml)",~13 fold
same,derepression in flies fed for up to 10 days compared with 5 days,[4]; adult flies on quinic acid food,no more derepression
same,time after which reversion of suppression could be seen,[4]; [7],6 h
same,time of marked reversion of suppression,[4]; [7],24 h
same,time of saturation of reversion of suppression,[4]; [7],≤ 5 days
same,reversion of QS inhibition of ET40-QF driven QUAS-mtdT-HA expression with increasing doses,[4]; quinic acid added to fly food on which flies developed,increasingly reverted
same,abnormalities in flies,Flies,no noticeable abnormalities
same,stability in food,[5],appears to be stable
B1,"GAL4 activation of QUAS, fold less than that of UAS",[1]; cross-activation,~200 fold
same,higher inducibility than QF/QUAS,[2],~1.6 fold
same,induction of luc2 expression from UAS-luc2,[2],"~5,300 fold"
same,induction of UAS,[6],~1000 fold
B2,enhancement of luc2 expression from QUAS-luc2 compared with QUAS-luc2 alone,[1],~3.300 fold
same,"QF activation of UAS, fold less than that of QUAS",[2]; cross-activation,"~1,500 fold"
same,induction of expression from QUAS,[3],~24.000 fold
